# Results taken from paper PMC11953117 (Cancer Chemotherapy and Pharmacology, 2025).
# Test: Safety endpoints (treatment-emergent AEs, CTCAE v4) in three phase 1 studies
# Format: in vivo, human
# Description: AEs were collected throughout the trials, graded using Common Terminology Criteria for Adverse Events v4. Treatment-emergent AEs (TEAEs), defined as any AE that started after the first dose of study treatment or that started prior to dosing and worsened during on treatment period (by investigator report of a change in intensity) following exposure to treatment, were included in the analysis.
# The rash AE endpoint pooled the following Medical Dictionary for Regulatory Activities (MedDRA) preferred terms: rash maculo-papular, rash macular, rash, rash generalized, rash papular and rash pruritic, while the diarrhea AE and hyperglycemia AE included the MedDRA preferred terms diarrhea and hyperglycemia, respectively.
# The grade selection for diarrhea and rash was based on clinical relevance in terms of limiting quality of life; for hyperglycemia the grade was higher considering this is a pharmacodynamic effect of AKT inhibition and often seen as asymptomatic change of laboratory value only.
# [1] = Continuous BID, 80 mg, N=8, pooled studies
# [2] = Continuous BID, 160 mg, N=5, pooled studies
# [3] = Continuous BID, 240 mg, N=13, pooled studies
# [4] = Continuous BID, 320 mg, N=18, pooled studies
# [5] = Continuous BID, 400 mg, N=16, pooled studies
# [6] = Continuous BID, 480 mg, N=6, pooled studies
# [7] = Continuous BID, 600 mg, N=2, pooled studies
# [8] = Total, all doses and schedules, N=277
# [9] = [2/5] BID, 640 mg, N=14, pooled studies
# [10] = [2/5] BID, 800 mg, N=14, pooled studies
# [11] = [4/3] BID, 360 mg, N=8, pooled studies
# [12] = [4/3] BID, 480 mg, N=163, pooled studies
# [13] = [4/3] BID, 640 mg, N=10, pooled studies
# [14] = in total, across all doses and schedules
smiles,measurement,setting,value
"NC1(C(=O)N[C@@H](CCO)c2ccc(Cl)cc2)CCN(c2ncnc3[nH]ccc23)CC1 [capivasertib, 4-amino-N-[(1S)-1-(4-chlorophenyl)-3-hydroxypropyl]-1-(7H-pyrrolo[2,3-d]pyrimidin– 4-yl)piperidine-4-carboxamide]",AE grade ≥ 1,[1],8 (100) n (%)
same,AE grade ≥ 3,[1],2 (25.0) n (%)
same,AEDD (AE leading to dose discontinuation),[1],0 n (%)
same,AEDM (AE leading to dose modification),[1],2 (25.0) n (%)
same,Diarrhea AE grade ≥ 2,[1],0 n (%)
same,Hyperglycemia AE grade ≥ 3,[1],0 n (%)
same,Increased BG > 13.9 mmol/L,[1],0 n (%)
same,Rash AE grade ≥ 2,[1],1 (12.5) n (%)
same,SAE,[1],2 (25.0) n (%)
same,AE grade ≥ 1,[2],5 (100) n (%)
same,AE grade ≥ 3,[2],0 n (%)
same,AEDD (AE leading to dose discontinuation),[2],0 n (%)
same,AEDM (AE leading to dose modification),[2],1 (20.0) n (%)
same,Diarrhea AE grade ≥ 2,[2],0 n (%)
same,Hyperglycemia AE grade ≥ 3,[2],0 n (%)
same,Increased BG > 13.9 mmol/L,[2],0 n (%)
same,Rash AE grade ≥ 2,[2],1 (20.0) n (%)
same,SAE,[2],1 (20.0) n (%)
same,AE grade ≥ 1,[3],12 (92.3) n (%)
same,AE grade ≥ 3,[3],4 (30.8) n (%)
same,AEDD (AE leading to dose discontinuation),[3],1 (7.7) n (%)
same,AEDM (AE leading to dose modification),[3],2 (15.4) n (%)
same,Diarrhea AE grade ≥ 2,[3],4 (30.8) n (%)
same,Hyperglycemia AE grade ≥ 3,[3],2 (15.4) n (%)
same,Increased BG > 13.9 mmol/L,[3],4 (30.8) n (%)
same,Rash AE grade ≥ 2,[3],3 (23.1) n (%)
same,SAE,[3],0 n (%)
same,AE grade ≥ 1,[4],18 (100) n (%)
same,AE grade ≥ 3,[4],10 (55.6) n (%)
same,AEDD (AE leading to dose discontinuation),[4],3 (16.7) n (%)
same,AEDM (AE leading to dose modification),[4],8 (44.4) n (%)
same,Diarrhea AE grade ≥ 2,[4],5 (27.8) n (%)
same,Hyperglycemia AE grade ≥ 3,[4],2 (11.1) n (%)
same,Increased BG > 13.9 mmol/L,[4],3 (16.7) n (%)
same,Rash AE grade ≥ 2,[4],5 (27.8) n (%)
same,SAE,[4],4 (22.2) n (%)
same,AE grade ≥ 1,[5],16 (100) n (%)
same,AE grade ≥ 3,[5],15 (93.8) n (%)
same,AEDD (AE leading to dose discontinuation),[5],7 (43.8) n (%)
same,AEDM (AE leading to dose modification),[5],15 (93.8) n (%)
same,Diarrhea AE grade ≥ 2,[5],10 (62.5) n (%)
same,Hyperglycemia AE grade ≥ 3,[5],4 (25.0) n (%)
same,Increased BG > 13.9 mmol/L,[5],7 (43.8) n (%)
same,Rash AE grade ≥ 2,[5],8 (50.0) n (%)
same,SAE,[5],6 (37.5) n (%)
same,AE grade ≥ 1,[6],6 (100) n (%)
same,AE grade ≥ 3,[6],6 (100) n (%)
same,AEDD (AE leading to dose discontinuation),[6],4 (66.7) n (%)
same,AEDM (AE leading to dose modification),[6],5 (83.3) n (%)
same,Diarrhea AE grade ≥ 2,[6],5 (83.3) n (%)
same,Hyperglycemia AE grade ≥ 3,[6],2 (33.3) n (%)
same,Increased BG > 13.9 mmol/L,[6],2 (33.3) n (%)
same,Rash AE grade ≥ 2,[6],3 (50.0) n (%)
same,SAE,[6],6 (100) n (%)
same,AE grade ≥ 1,[7],2 (100) n (%)
same,AE grade ≥ 3,[7],2 (100) n (%)
same,AEDD (AE leading to dose discontinuation),[7],2 (100) n (%)
same,AEDM (AE leading to dose modification),[7],1 (50.0) n (%)
same,Diarrhea AE grade ≥ 2,[7],1 (50.0) n (%)
same,Hyperglycemia AE grade ≥ 3,[7],0 n (%)
same,Increased BG > 13.9 mmol/L,[7],1 (50.0) n (%)
same,Rash AE grade ≥ 2,[7],2 (100) n (%)
same,SAE,[7],2 (100) n (%)
same,AE grade ≥ 1,[8],274 (98.9) n (%)
same,AE grade ≥ 3,[8],182 (65.7) n (%)
same,AEDD (AE leading to dose discontinuation),[8],51 (18.4) n (%)
same,AEDM (AE leading to dose modification),[8],139 (50.2) n (%)
same,Diarrhea AE grade ≥ 2,[8],102 (36.8) n (%)
same,Hyperglycemia AE grade ≥ 3,[8],72 (26.0) n (%)
same,Increased BG > 13.9 mmol/L,[8],126 (45.5) n (%)
same,Rash AE grade ≥ 2,[8],73 (26.4) n (%)
same,SAE,[8],107 (38.6) n (%)
same,AE grade ≥ 1,[9],14 (100) n (%)
same,AE grade ≥ 3,[9],11 (78.6) n (%)
same,AEDD (AE leading to dose discontinuation),[9],2 (14.3) n (%)
same,AEDM (AE leading to dose modification),[9],2 (14.3) n (%)
same,Diarrhea AE grade ≥ 2,[9],3 (21.4) n (%)
same,Hyperglycemia AE grade ≥ 3,[9],7 (50.0) n (%)
same,Increased BG > 13.9 mmol/L,[9],8 (57.1) n (%)
same,Rash AE grade ≥ 2,[9],2 (14.3) n (%)
same,SAE,[9],7 (50.0) n (%)
same,AE grade ≥ 1,[10],14 (100) n (%)
same,AE grade ≥ 3,[10],8 (57.1) n (%)
same,AEDD (AE leading to dose discontinuation),[10],1 (7.1) n (%)
same,AEDM (AE leading to dose modification),[10],8 (57.1) n (%)
same,Diarrhea AE grade ≥ 2,[10],3 (21.4) n (%)
same,Hyperglycemia AE grade ≥ 3,[10],5 (35.7) n (%)
same,Increased BG > 13.9 mmol/L,[10],9 (64.3) n (%)
same,Rash AE grade ≥ 2,[10],2 (14.3) n (%)
same,SAE,[10],5 (35.7) n (%)
same,AE grade ≥ 1,[11],6 (75.0) n (%)
same,AE grade ≥ 3,[11],3 (37.5) n (%)
same,AEDD (AE leading to dose discontinuation),[11],0 n (%)
same,AEDM (AE leading to dose modification),[11],3 (37.5) n (%)
same,Diarrhea AE grade ≥ 2,[11],4 (50.0) n (%)
same,Hyperglycemia AE grade ≥ 3,[11],1 (12.5) n (%)
same,Increased BG > 13.9 mmol/L,[11],3 (37.5) n (%)
same,Rash AE grade ≥ 2,[11],1 (12.5) n (%)
same,SAE,[11],0 n (%)
same,AE grade ≥ 1,[12],163 (100) n (%)
same,AE grade ≥ 3,[12],114 (69.9) n (%)
same,AEDD (AE leading to dose discontinuation),[12],27 (16.6) n (%)
same,AEDM (AE leading to dose modification),[12],90 (55.2) n (%)
same,Diarrhea AE grade ≥ 2,[12],64 (39.3) n (%)
same,Hyperglycemia AE grade ≥ 3,[12],45 (27.6) n (%)
same,Increased BG > 13.9 mmol/L,[12],82 (50.3) n (%)
same,Rash AE grade ≥ 2,[12],45 (27.6) n (%)
same,SAE,[12],68 (41.7) n (%)
same,AE grade ≥ 1,[13],10 (100) n (%)
same,AE grade ≥ 3,[13],7 (70.0) n (%)
same,AEDD (AE leading to dose discontinuation),[13],4 (40) n (%)
same,AEDM (AE leading to dose modification),[13],2 (20.0) n (%)
same,Diarrhea AE grade ≥ 2,[13],3 (30.0) n (%)
same,Hyperglycemia AE grade ≥ 3,[13],4 (40.0) n (%)
same,Increased BG > 13.9 mmol/L,[13],7 (70.0) n (%)
same,Rash AE grade ≥ 2,[13],0 n (%)
same,SAE,[13],6 (60.0) n (%)
same,patients with AE grade ≥ 1,[14],98.9%
same,patients with AEs grade ≥ 3,[14],65.7%
same,patients with AEs leading to dose discontinuation,[14],18.4%
same,patients with AEs leading to dose modification,[14],50.2%
same,patients with SAEs,[14],38.6%
same,patients with diarrhea AE grade ≥ 2,[14],36.8%
same,patients with hyperglycemia grade ≥ 3,[14],26.0%
same,patients with increased blood glucose > 13.9 mmol/L,[14],45.5%
same,patients with rash AE grade ≥ 2,[14],26.4%
